Measurements published in PubChem BioAssay AID2060619 (Molecular Pharmacology Branch, DTP, NCI, 2025).

Test system: 323965-272-R-J2-PDC complex spheroid viability
Assay: Anticancer human tumor 323965-272-R-J2-PDC patient-derived pancreatic carcinoma cell line growth inhibition [CLK]
Conditions: for IC50: curve of first compound; for viability, T/C: stronger effect = lower value; active = viability on the fitted dose curve at most 10% of control; inactive = the rest
Procedure, shortened: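 Patient-derived tumor cells grown as complex spheroids with HUVEC endothelial cells and mesenchymal stem cells, treated with drug combinations. Concentrations descend in half-log steps from near clinical Cmax, or from 10 microM if Cmax unknown.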

[1] = second compound 0.0316 µM, first compound 0.0316 µM
[2] = second compound 0.0316 µM, first compound 0.1 µM
[3] = second compound 0.0316 µM, first compound 0.316 µM
[4] = second compound 0.0316 µM, first compound 1 µM
[5] = second compound 0.0316 µM, first compound 3.16 µM
[6] = second compound 0.0316 µM, first compound 10 µM
[7] = second compound 0.1 µM, first compound 0.0316 µM
[8] = second compound 0.1 µM, first compound 0.1 µM
[9] = second compound 0.1 µM, first compound 0.316 µM
[10] = second compound 0.1 µM, first compound 1 µM
[11] = second compound 0.1 µM, first compound 3.16 µM
[12] = second compound 0.1 µM, first compound 10 µM
[13] = second compound 0.316 µM, first compound 0.0316 µM
[14] = second compound 0.316 µM, first compound 0.1 µM
[15] = second compound 0.316 µM, first compound 0.316 µM
[16] = second compound 0.316 µM, first compound 1 µM
[17] = second compound 0.316 µM, first compound 3.16 µM
[18] = second compound 0.316 µM, first compound 10 µM
[19] = second compound 1 µM, first compound 0.0316 µM
[20] = second compound 1 µM, first compound 0.1 µM
[21] = second compound 1 µM, first compound 0.316 µM
[22] = second compound 1 µM, first compound 1 µM
[23] = second compound 1 µM, first compound 3.16 µM
[24] = second compound 1 µM, first compound 10 µM
[25] = second compound 3.16 µM, first compound 0.0316 µM
[26] = second compound 3.16 µM, first compound 0.1 µM
[27] = second compound 3.16 µM, first compound 0.316 µM
[28] = second compound 3.16 µM, first compound 1 µM
[29] = second compound 3.16 µM, first compound 3.16 µM
[30] = second compound 3.16 µM, first compound 10 µM
[31] = second compound 10 µM, first compound 0.0316 µM
[32] = second compound 10 µM, first compound 0.1 µM
[33] = second compound 10 µM, first compound 0.316 µM
[34] = second compound 10 µM, first compound 1 µM
[35] = second compound 10 µM, first compound 3.16 µM
[36] = second compound 10 µM, first compound 10 µM
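Also: spheroids exposed to agents for seven days before readout.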
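For viability, T/C in this document: percent of DMSO vehicle control wells so 100% = untreated growth.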

C#Cc1c(F)ccc2cc(O)cc(-c3ncc4c(N5CC6CCC(C5)N6)nc(OCC56CCCN5CC(F)C6)nc4c3F)c12 (centres undefined) + CNC(=O)c1ccc(Nc2nc(OC3CCCC3)c3c(-c4ccc5nc(C)oc5c4)c[nH]c3n2)c(OC)c1
2630 nM: IC50 (second compound 0.1 µM)
> 10000 nM: IC50 (second compound 0.0316 µM)
inactive: viability, T/C [1] 92.6% | viability, T/C [2] 88.8% | viability, T/C [3] 98.8% | viability, T/C [4] 74.3% | viability, T/C [5] 62.6% | viability, T/C [6] 51.4% | viability, T/C [7] 75% | viability, T/C [8] 77.9% | viability, T/C [9] 62.5% | viability, T/C [10] 58.7% | viability, T/C [11] 47.8% | viability, T/C [12] 38.6% | viability, T/C [13] 58.9% | viability, T/C [14] 59.8% | viability, T/C [15] 51.9% | viability, T/C [16] 49.3% | viability, T/C [17] 35.8% | viability, T/C [18] 32.3% | viability, T/C [19] 43.2% | viability, T/C [20] 37.7% | viability, T/C [21] 42.4% | viability, T/C [22] 39.3% | viability, T/C [23] 30.8% | viability, T/C [24] 23.2% | viability, T/C [25] 36.5% | viability, T/C [26] 43.9% | viability, T/C [27] 36.8% | viability, T/C [28] 33.5% | viability, T/C [29] 26% | viability, T/C [30] 20.2% | viability, T/C [31] 39.6% | viability, T/C [32] 38.2% | viability, T/C [33] 38.1% | viability, T/C [34] 29.8% | viability, T/C [35] 25.7% | viability, T/C [36] 19.6%
< 31.6 nM: IC50 (second compound 1 µM) | IC50 (second compound 3.16 µM) | IC50 (second compound 10 µM)
633 nM: IC50 (second compound 0.316 µM)

COC1C=CCC(C)C(C)S(=O)(=O)NC(=O)c2ccc3c(c2)N(CC2CCC21)CC1(CCCc2cc(Cl)ccc21)CO3 (centres undefined) + CNC(=O)c1ccc(Nc2nc(OC3CCCC3)c3c(-c4ccc5nc(C)oc5c4)c[nH]c3n2)c(OC)c1
< 31.6 nM: IC50 (second compound 1 µM) | IC50 (second compound 3.16 µM)
2200 nM: IC50 (second compound 0.0316 µM)
inactive: viability, T/C [1] 106% | viability, T/C [2] 119% | viability, T/C [3] 85.4% | viability, T/C [4] 68.3% | viability, T/C [5] 43.9% | viability, T/C [6] 23.2% | viability, T/C [7] 105% | viability, T/C [8] 86.5% | viability, T/C [9] 68.8% | viability, T/C [10] 57.4% | viability, T/C [11] 36.8% | viability, T/C [12] 25.1% | viability, T/C [13] 74.1% | viability, T/C [14] 62% | viability, T/C [15] 56.9% | viability, T/C [16] 42.3% | viability, T/C [17] 39.1% | viability, T/C [18] 21.4% | viability, T/C [19] 47.6% | viability, T/C [20] 47.8% | viability, T/C [21] 39.1% | viability, T/C [22] 37.4% | viability, T/C [23] 30.7% | viability, T/C [24] 21.5% | viability, T/C [25] 46.1% | viability, T/C [26] 43.5% | viability, T/C [27] 36.7% | viability, T/C [28] 29.7% | viability, T/C [29] 28.4% | viability, T/C [30] 20.7% | viability, T/C [31] 54.7% | viability, T/C [32] 45.3% | viability, T/C [33] 32.8% | viability, T/C [34] 29.2% | viability, T/C [35] 24.8% | viability, T/C [36] 18.1%
580 nM: IC50 (second compound 0.316 µM)
53.1 nM: IC50 (second compound 10 µM)
1370 nM: IC50 (second compound 0.1 µM)
